# Results taken from patent US20250120948A1, “Small Molecules G(alpha)I2 Inhibitors and Combination With Anticancer Drugs and Use Thereof” (Georgia Tech Research Corporation, priority 2023, published 2025).
# Tests used:
# PC3 cells = experiment: Transwell migration assay in PC3 prostate cancer cells; format: cell-based, human; settings: for effect on PC3 cell migration: compounds tested at 0.1 to 100 μM, compared with 14; for effect of chemotherapeutic drug on cell migration in PC3 cells: drug alone; for block of SAHA-stimulated cell migration in PC3 cells / block of docetaxel-stimulated cell migration in PC3 cells: second generation inhibitors at 20 μM, simultaneous treatment
# Procedure: (§1) In vitro transwell migration assays were conducted as described previously (Caggia et al., “Novel Role of Gialpha2 in Cell Migration: Downstream of PI3-kinase-AKT and RacI in Prostate Cancer Cells,” J Cell Physiol, 234:802-815 (2018); Caggia et al., “Small Molecule Inhibitors Targeting Galphai2 Protein Attenuate Migration of Cancer Cells,” Cancers (Basel), 12(6):1631 (2020)). Briefly, the outside of the transwell inserts (BD Biosciences, San Jose, CA) were coated with 50 μl of rat tail collagen ([…]; BD Biosciences, San Jose, CA) overnight at 4° C. The next day, 50 μl of the aforementioned rat tail collagen were added for 1 hour at room temperature into the transwell inserts, to coat the inside of the membranes. DU145, PC3 and LNCaP cells were trypsinized and suspended at the appropriate density (3×10^5 cells/insert for DU145 and PC3, and 5×10^5 cells/insert for LNCaP) in MEM or RPMI containing 0.2% BSA (Sigma-Aldrich, St. Louis, MO). Chemoattractant solution, used as positive control, was made by diluting the epidermal growth factor (EGF) (10 ng/ml) into MEM (PC3 and DU145) or RPMI (LNCaP) supplemented with 0.2% BSA. Media containing 0.2% BSA served as a control. Control and EGF solutions ([…]) were added into the wells of a 24-well plate. Aliquots of 100 μl of cell suspensions, treated with or without the different compounds at several concentrations, were loaded into the transwell inserts and the plates were incubated at 37° C. for 5 hours (DU145 and PC3) or 24 hours (LNCaP). The cells inside the transwell inserts were removed by cotton swabs, and the cleaned inserts were fixed with 350 μl of 4% paraformaldehyde (pH 7.5) for 20 minutes at room temperature. Cells that had migrated to the outside of the transwell insert membrane were stained with 3 ng/ml of DAPI solution (Thermo Fisher Scientific, Eugene, OR) and images of five non-overlapping fields were captured using Axiovert 200M, Carl Zeiss (Thornwood, NY) microscope. The number of stained nuclei were determined with automatic counting using image analysis software (ZEN 2012; Carl Zeiss). Results were expressed as migration index defined as the average number of cells per field for test substance/the average number of cells per field for the medium control.
# The effects of the newly synthesized compounds on the migratory behavior of PC3 cells were investigated in transwell migration assays as inventors have done before (Caggia et al., “Small Molecule Inhibitors Targeting Galphai2 Protein Attenuate Migration of Cancer Cells,” Cancers (Basel), 12(6):1631 (2020)). Compounds were tested at a concentration range of 0.1 to 100 μM. […] To potentially obtain insight into the disparity in their Gαi inhibition activities, molecular docking was performed on the enantiomers of 6 (6-R and 6-S) and 15 (15-R and 15-S). […] This slightly weaker binding affinity may partially explain the disproportionately weaker potency of 15 relative to 6. Other molecular factors, such as those which led to the attenuated potency observed with amino- to ether-group switch in the 7/10 pair, may contribute to the reduced potency of 15. Finally, most of these compounds have no effects on the morphology of PC3 cells or viability of several cancer cells at the concentrations as high as 100 μM.
# LNCaP cells = experiment: Transwell migration assay in LNCaP prostate cancer cells; format: cell-based, human; settings: drug alone; for effect of chemotherapeutic drug on cell migration in LNCaP cells: several concentrations, 24 hours
# Procedure: as §1
# To determine the effects of HDACi on prostate cancer cell migration, migration assays were performed in androgen receptor (AR)-positive LNCaP cells using several concentrations of SAHA (0.1, 0.25, 0.5, 1, 2, 4 μM), a commercially available HDACi. […] Inventors have previously developed a very potent HDACi inhibitor (SBI-I-19), coupled with an anti-androgen, enzalutamide, which selectively targets androgen sensitive prostate cancer cells for its cytotoxic effects (Gryder et al., “Selectively Targeting Prostate Cancer with Antiandrogen Equipped Histone Deacetylase Inhibitors,” ACS Chem Biol, 8:2550-2560 (2013)). The possible effects of different concentrations of SBI-I-19 on cell migration in LNCaP cells were determined.
# DU145 cells = experiment: Transwell migration assay in DU145 prostate cancer cells; format: cell-based, human; settings: drug alone
# Procedure: In vitro transwell migration assays were conducted as described previously (Caggia et al., “Novel Role of Gialpha2 in Cell Migration: Downstream of PI3-kinase-AKT and RacI in Prostate Cancer Cells,” J Cell Physiol, 234:802-815 (2018); Caggia et al., “Small Molecule Inhibitors Targeting Galphai2 Protein Attenuate Migration of Cancer Cells,” Cancers (Basel), 12(6):1631 (2020)). Briefly, the outside of the transwell inserts (BD Biosciences, San Jose, CA) were coated with 50 μl of rat tail collagen ([…]; BD Biosciences, San Jose, CA) overnight at 4° C. The next day, 50 μl of the aforementioned rat tail collagen were added for 1 hour at room temperature into the transwell inserts, to coat the inside of the membranes. DU145, PC3 and LNCaP cells were trypsinized and suspended at the appropriate density (3×10^5 cells/insert for DU145 and PC3, and 5×10^5 cells/insert for LNCaP) in MEM or RPMI containing 0.2% BSA (Sigma-Aldrich, St. Louis, MO). Chemoattractant solution, used as positive control, was made by diluting the epidermal growth factor (EGF) (10 ng/ml) into MEM (PC3 and DU145) or RPMI (LNCaP) supplemented with 0.2% BSA. Media containing 0.2% BSA served as a control. Control and EGF solutions ([…]) were added into the wells of a 24-well plate. Aliquots of 100 μl of cell suspensions, treated with or without the different compounds at several concentrations, were loaded into the transwell inserts and the plates were incubated at 37° C. for 5 hours (DU145 and PC3) or 24 hours (LNCaP). […] The number of stained nuclei were determined with automatic counting using image analysis software (ZEN 2012; Carl Zeiss). Results were expressed as migration index defined as the average number of cells per field for test substance/the average number of cells per field for the medium control.
# To determine whether the induction of cell migration by AR-antagonists and HDACi was limited to only AR-positive cells, the effects of anti-androgens and HDACi and docetaxel in AR-negative DU145 and PC3 cells were determined.
# [1] = Stability in human liver microsomes; format: in vitro ADME
# Procedure: (§2) On the strength of their potency, the stability of 6, 7 and 10 was determined in human and mouse plasma and liver microsomes.
# [2] = Stability in mouse liver microsomes; format: in vitro ADME
# Procedure: as §2
compound,measurement,setting,value
"CSc1ccc(/N=C(\C)c2cc3ccccc3n2C)cc1 [Compound 4, (E)-1-(1-methyl-1H-indol-2-yl)-N-(4-(methylthio)phenyl)ethan-1-imine]",effect on PC3 cell migration,PC3 cells,"concentration dependent reduction of PC3 cell migration, but less efficiently relative to 14"
CC1(C)C(=O)N(c2ccc(C#N)c(C(F)(F)F)c2)C(=O)N1Cc1ccc(-c2cn(CCCCC(=O)NO)nn2)cc1 [SBI-I-19],effect of chemotherapeutic drug on cell migration in LNCaP cells,LNCaP cells,significant dose-dependent increase in cell migration
same,effect of chemotherapeutic drug on cell migration in DU145 cells,DU145 cells,increased cell migration
"CC(=O)O[C@@]12CO[C@@H]1C[C@H](O)[C@@]1(C)C(=O)[C@H](O)C3=C(C)[C@@H](OC(=O)[C@H](O)[C@@H](NC(=O)OC(C)(C)C)c4ccccc4)C[C@@](O)([C@@H](OC(=O)c4ccccc4)[C@H]21)C3(C)C [docetaxel, reference compound]",effect of chemotherapeutic drug on cell migration in PC3 cells,PC3 cells,induced increase in cell migration
CC(O)(CS(=O)(=O)c1ccc(F)cc1)C(=O)Nc1ccc(C#N)c(C(F)(F)F)c1 (stereo not drawn) [bicalutamide],concentration of maximum induction of cell migration in LNCaP cells,LNCaP cells,2.5 µM
O=C(CCCCCCC(=O)Nc1ccccc1)NO [SAHA],effect of chemotherapeutic drug on cell migration in PC3 cells,PC3 cells,induced increase in cell migration
same,effect of chemotherapeutic drug on cell migration in LNCaP cells,LNCaP cells,significant dose-dependent increase in cell migration
same,effect of chemotherapeutic drug on cell migration in DU145 cells,DU145 cells,increased cell migration
"CC(Oc1ccc(O)cc1)c1cc2ccccc2n1C (racemic) [Compound 15, 4-(1-(1-methyl-1H-indol-2-yl)ethoxy)phenol]",effect on PC3 cell migration,PC3 cells,did not inhibit the migration of PC3 cells at the maximum concentration tested
CNC(=O)c1ccc(N2C(=S)N(c3ccc(C#N)c(C(F)(F)F)c3)C(=O)C2(C)C)cc1F [enzalutamide],concentration of maximum induction of cell migration in LNCaP cells,LNCaP cells,2.5 µM
same,effect of chemotherapeutic drug on cell migration in LNCaP cells,LNCaP cells,dose-dependent increase in cell migration
same,effect of chemotherapeutic drug on cell migration in DU145 cells,DU145 cells,increased cell migration
"CSc1ccc(NC(C)c2cc3ccccc3n2C)cc1 (racemic) [Compound 7, N-(1-(1-methyl-1H-indol-2-yl)ethyl)-4-(methylthio)aniline]",block of stimulatory effects of EGF on PC3 cell migration,PC3 cells; EGF-stimulated,blocks the stimulatory effects of EFG on PC3 cell migration
same,effect on PC3 cell migration,PC3 cells,more effective relative to 14
same,block of SAHA-stimulated cell migration in PC3 cells,PC3 cells,blocked the stimulatory effects of docetaxel and SAHA in PC3 cells
same,block of docetaxel-stimulated cell migration in PC3 cells,PC3 cells,blocked the stimulatory effects of docetaxel and SAHA in PC3 cells
same,stability in liver microsomes,[1],only stable in the human microsome
same,stability in liver microsomes,[2],only stable in the human microsome
"Cn1c(/C=N/c2ccc(O)cc2)cc2ccccc21 [Compound 3, (E)-4-(((1-methyl-1H-indol-2-yl)methylene)amino)phenol]",effect on PC3 cell migration,PC3 cells,"concentration dependent reduction of PC3 cell migration, but less efficiently relative to 14"
"CC(Oc1ccc(S(C)(=O)=O)cc1)c1cc2ccccc2n1C (racemic) [Compound 12, 1-methyl-2-(1-(4-(methylsulfonyl)phenoxy)ethyl)-1H-indole]",effect on PC3 cell migration,PC3 cells,"less effective, eliciting reduced anti-migration activities relative to the other compounds"
"CSc1ccc(OC(C)c2cc3ccccc3n2C)cc1 (stereo not drawn) [Compound 10, 1-methyl-2-(1-(4-(methylthio)phenoxy)ethyl)-1H-indole]",effect on PC3 cell migration,PC3 cells,less potent compared to 7
same,block of SAHA-stimulated cell migration in PC3 cells,PC3 cells,blocked the stimulatory effects of docetaxel and SAHA in PC3 cells
same,block of docetaxel-stimulated cell migration in PC3 cells,PC3 cells,blocked the stimulatory effects of docetaxel and SAHA in PC3 cells
same,stability in liver microsomes,[1],only stable in the human microsome
same,stability in liver microsomes,[2],only stable in the human microsome
"CC(Oc1ccc([S+](C)[O-])cc1)c1cc2ccccc2n1C (stereo not drawn) [Compound 13, 1-methyl-2-(1-(4-(methylsulfinyl)phenoxy)ethyl)-1H-indole]",effect on PC3 cell migration,PC3 cells,"less effective, eliciting reduced anti-migration activities relative to the other compounds"
"Cn1c(CNc2ccc(O)cc2)cc2ccccc21 [Compound 5, 4-(((1-methyl-1H-indol-2-yl)methyl)amino)phenol]",effect on PC3 cell migration,PC3 cells,comparable potency
"CC(Nc1ccc(O)cc1)c1cc2ccccc2n1C (racemic) [Compound 6, 4-((1-(1-methyl-1H-indol-2-yl)ethyl)amino)phenol]",block of stimulatory effects of Docetaxel on PC3 cell migration,"PC3 cells; FIG. 13, concentration not given",block the stimulatory effects of Docetaxel on PC3 cell migration
same,effect on PC3 cell migration,PC3 cells,more effective relative to 14
same,block of SAHA-stimulated cell migration in PC3 cells,PC3 cells,blocked the stimulatory effects of docetaxel and SAHA in PC3 cells
same,block of docetaxel-stimulated cell migration in PC3 cells,PC3 cells,blocked the stimulatory effects of docetaxel and SAHA in PC3 cells
same,stability in liver microsomes,[1],robustly stable in both species
same,stability in liver microsomes,[2],robustly stable in both species
